# “Also recorded” adds a separate entry of the source.
# Test system: human PC-3 prostate cancer cells
# Test: in vitro assay of PC-3 cell invasion across Matrigel artificial membrane
# Format: cell-based
# Settings: for X ± σ (X = mean number of invading cells, σ = standard deviation): PC-3 cells, HGF 40 ng/ml induced invasion, fixed total concentration 4 micrograms/ml, 72 hr culture, c+ 33 ± 10.7, c− 3 ± 1.7; for inhibition of PC-3 invasion, result in words: total dose 4 micrograms/ml, Kruskal-Wallis test
# Source text: In order to determine a possible molecular mechanism of mixtures of conjugated fatty acids and polyphenols according to the present invention, an accepted in vitro assay of cancer cell invasion was employed (Jiang et al., (1995) Regulation of the expression of E-cadherin on human cancer cells by gamma-linolenic acid (GLA). Cancer Res. 55:5043-5048).
# Specifically, human PC-3 prostate cancer cells were used as an in vitro model to assess invasion across a Matrigel™ (Becton, Dickenson and Company, Franklin Lakes, N.J.) artificial membrane. Briefly, 6.5 mm diameter polycarbonate membranes (pore size 8 microns) […]. Following gel rehydration, 5×10^4 PC-3 human prostate cancer cells were added to each well. Hepatocyte growth factor/scatter factor (HGF) (Becton, Dickenson & Company, Franklin Lakes, N.J.) was used at 40 ng/ml to induce invasion. The upper chamber contained thested components (i.e. punicic acid, luteolin, caffeic acid or ellagic acid, or a combination of two, three or all four of the chemicals) at a fixed total concentration of 4 micrograms/ml.
# Pure compounds (ellagic acid ([…], luteolin [L], caffeic acid [C] and punicic acid […]) were purchased commercially (E, C and L from Sigma Aldrich, Rehovot, Israel; P from Larodan Chemicals; Malmo; Sweden) and assayed as potential invasion inhibitors. The total dose was 4 micrograms/ml in each of 18 trials. The Kruskal-Wallis test was used to measure significance.
SMILES,"X ± σ (X = mean number of invading cells, σ = standard deviation)","inhibition of PC-3 invasion, result in words"
"CCCC\C=C/C=C/C=C\CCCCCCCC(=O)O [P, punicic acid]",6.4 ± 1.1,inhibited invasion significantly
"O=C(O)/C=C/c1ccc(O)c(O)c1 [C, caffeic acid]",16.8 ± 3.4,"inhibited invasion significantly; also recorded: much less than that of ellagic acid, punicic acid or luteolin"
"O=c1oc2c(O)c(O)cc3c(=O)oc4c(O)c(O)cc1c4c23 [E, ellagic acid]",7.4 ± 2.3,inhibited invasion significantly
"O=c1cc(-c2ccc(O)c(O)c2)oc2cc(O)cc(O)c12 [L, luteolin]",9 ± 1.6,inhibited invasion significantly

# From patent publication US20080234361A1, “Pharmaceutical Compositions, Methods of Formulation Thereof and Methods of Use Thereof” (Rimonest Ltd., priority 2004, published 2008)
